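Method: 48-hour compound exposure of cells in 96-well plates, five concentrations, linear interpolation of endpoints. GI50 is the concentration that inhibits growth by half.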 Active and inactive are the calls of the source. Rule as the data show it: active = GI50 up to about 1.1 µM and inactive = higher.
Columns and labels:
Experiment in all cases: NCI anticancer screen, dose series, 48 h
SW-620 = test system: SW-620
PC-3 = test system: PC-3
NCI-H522 = test system: NCI-H522
U-251 = test system: U-251
TK-10 = test system: TK-10
NCI-H23 = test system: NCI-H23
MDA-N = test system: MDA-N
SNB-75 = test system: SNB-75
RPMI-8226 = test system: RPMI-8226
786-0 = test system: 786-0
SK-MEL-5 = test system: SK-MEL-5
HOP-62 = test system: HOP-62
SK-OV-3 = test system: SK-OV-3
HOP-92 = test system: HOP-92
SF-268 = test system: SF-268
UACC-62 = test system: UACC-62
SN12C = test system: SN12C
KM12 = test system: KM12
OVCAR-3 = test system: OVCAR-3
K562 = test system: K562
OVCAR-8 = test system: OVCAR-8
UACC-257 = test system: UACC-257
UO-31 = test system: UO-31
SK-MEL-28 = test system: SK-MEL-28
OVCAR-4 = test system: OVCAR-4
NCI/ADR-RES = test system: NCI/ADR-RES
HCT-116 = test system: HCT-116
DU-145 = test system: DU-145
T47D = test system: T47D
MOLT-4 = test system: MOLT-4
NCI-H226 = test system: NCI-H226
HCC 2998 = test system: HCC 2998
OVCAR-5 = test system: OVCAR-5
COLO 205 = test system: COLO 205
HL-60 = test system: HL-60
A549 = test system: A549
ACHN = test system: ACHN
NCI-H460 = test system: NCI-H460
SF-295 = test system: SF-295
Malme-3M = test system: Malme-3M
MDA-MB-231 = test system: MDA-MB-231
Hs-578T = test system: Hs-578T
A498 = test system: A498
LOX IMVI = test system: LOX IMVI
EKVX = test system: EKVX
HCT-15 = test system: HCT-15
SR = test system: SR
SF-539 = test system: SF-539
CCRF-CEM = test system: CCRF-CEM
HT-29 = test system: HT-29
IGROV-1 = test system: IGROV-1
MDA-MB-435 = test system: MDA-MB-435
SNB-19 = test system: SNB-19
RXF 393 = test system: RXF 393
MCF7 = test system: MCF7
CAKI-1 = test system: CAKI-1
M14 = test system: M14
SK-MEL-2 = test system: SK-MEL-2

O=c1[nH]c(=O)n(C2OC(CO)C(O)C2O)c2c1CCCC2 (stereo not drawn)
GI50 (SW-620): > 100 µM (inactive) | GI50 (PC-3): > 100 µM (inactive) | GI50 (NCI-H522): > 100 µM (inactive) | GI50 (U-251): > 100 µM (inactive) | GI50 (TK-10): > 100 µM (inactive) | GI50 (NCI-H23): > 100 µM (inactive) | GI50 (MDA-N): > 100 µM (inactive) | GI50 (SNB-75): > 100 µM (inactive) | GI50 (RPMI-8226): > 100 µM (inactive) | GI50 (786-0): > 100 µM (inactive) | GI50 (SK-MEL-5): > 100 µM (inactive) | GI50 (HOP-62): > 100 µM (inactive) | GI50 (SK-OV-3): > 100 µM (inactive) | GI50 (HOP-92): > 100 µM (inactive) | GI50 (SF-268): > 100 µM (inactive) | GI50 (UACC-62): > 100 µM (inactive) | GI50 (SN12C): > 100 µM (inactive) | GI50 (KM12): > 100 µM (inactive) | GI50 (OVCAR-3): > 100 µM (inactive) | GI50 (K562): > 100 µM (inactive) | GI50 (OVCAR-8): > 100 µM (inactive) | GI50 (UACC-257): > 100 µM (inactive) | GI50 (UO-31): > 100 µM (inactive) | GI50 (SK-MEL-28): > 100 µM (inactive) | GI50 (OVCAR-4): > 100 µM (inactive) | GI50 (NCI/ADR-RES): > 100 µM (inactive) | GI50 (HCT-116): > 100 µM (inactive) | GI50 (DU-145): > 100 µM (inactive) | GI50 (T47D): > 100 µM (inactive) | GI50 (MOLT-4): > 100 µM (inactive) | GI50 (NCI-H226): > 100 µM (inactive) | GI50 (HCC 2998): > 100 µM (inactive) | GI50 (OVCAR-5): > 100 µM (inactive) | GI50 (COLO 205): > 100 µM (inactive) | GI50 (HL-60): > 100 µM (inactive) | GI50 (A549): > 100 µM (inactive) | GI50 (ACHN): > 100 µM (inactive) | GI50 (NCI-H460): > 100 µM (inactive) | GI50 (SF-295): > 100 µM (inactive) | GI50 (Malme-3M): > 100 µM (inactive) | GI50 (MDA-MB-231): > 100 µM (inactive) | GI50 (Hs-578T): > 100 µM (inactive) | GI50 (A498): > 100 µM (inactive) | GI50 (LOX IMVI): > 100 µM (inactive) | GI50 (EKVX): > 100 µM (inactive) | GI50 (HCT-15): > 100 µM | GI50 (SR): > 100 µM (inactive) | GI50 (SF-539): > 100 µM (inactive) | GI50 (CCRF-CEM): > 100 µM (inactive) | GI50 (HT-29): > 100 µM (inactive) | GI50 (IGROV-1): > 100 µM (inactive) | GI50 (MDA-MB-435): > 100 µM (inactive) | GI50 (SNB-19): > 100 µM (inactive) | GI50 (RXF 393): > 100 µM (inactive) | GI50 (MCF7): > 100 µM (inactive) | GI50 (CAKI-1): > 100 µM (inactive) | GI50 (M14): > 100 µM (inactive) | GI50 (SK-MEL-2): > 100 µM (inactive)
